# Data published in patent US20230346956A1, “COMPLEX OF 7-DEACETYLFORSKOLIN AND PVP” (SciPharm S.à.r.l, priority 2020, published 2023).
# Tests used:
# [1] = Determination of water solubility (excess complex in water, filtration, HPLC); format: physicochemical; details: content of active in filtrate by HPLC
# Procedure: For the solubility tests, the respective complex dried by means of rotary evaporator was used. A defined amount of water is added and then complex is added until an excess of 7-DAFSK-PVP is present. The supersaturated solution is sonicated, stirred and slightly heated (water bath 40° C.). The suspension is then filtered (0.45 μm filter) and the content of 7-DAFSK in the filtrate is determined by HPLC.
# [2] = test system: adenylyl cyclase (HEK293 cells stably expressing EP2 receptor); assay: cAMP assay, HEK293 cells with EP2 receptor; format: cell-based, human; details: 30 μM forskolin in DMSO, 100 μM 7-DAFSK in water or as PVP K12 complex in water, with 30 μM treprostinil, treprostinil alone = control, 30 min, room temperature
# Procedure: (§1) A cAMP assay was performed using HEK293 cells (human embryonic kidney cells, 1970) with the prostaglandin receptors EP2 or EP4, or the prostacyclin receptor IP. HEK293 cells were incubated with FCS and a radioligand ([^3H] adenine). The formation of cAMP ([^3H] cAMP) was monitored experimentally.
# (§2) Day 1: HEK293 cells stably expressing either EP2, EP4, or IP receptors were grown on a 6-well plate in 2 mL DMEM medium containing 10% FCS and 2 μCi [^3H]-adenine and incubated for 16 hours.
# (§3) Day 2: Cells were stimulated with 30 μM treprostinil alone or in combination with […] forskolin in DMSO, 100 μM 7-DAFSK in water, or 100 μM 7-DAFSK in 7-DAFSK-PVP K12 complex in water (in fresh medium for 30 minutes at room temperature). Cells were then lysed with 2.5% perchloric acid (PCA) for 30 minutes on ice. The PCA extract was neutralized with KOH and [^3H]cAMP was separated by sequential chromatography using DOWEX and alumina columns. Radioactivity was then measured using a scintillator.
# (§4) An aliquot of PCA extract from each well was used to measure radioactivity.
# [3] = test system: adenylyl cyclase (HEK293 cells stably expressing EP4 receptor); assay: cAMP assay, HEK293 cells with EP4 receptor; format: cell-based, human; details: 30 μM forskolin in DMSO, 100 μM 7-DAFSK in water or as PVP K12 complex in water, with 30 μM treprostinil, treprostinil alone = control, 30 min, room temperature
# Procedure: as §1, §2, §3, §4
# [4] = test system: adenylyl cyclase (HEK293 cells stably expressing IP receptor); assay: cAMP assay, HEK293 cells with IP receptor; format: cell-based, human; details: 30 μM forskolin in DMSO, 100 μM 7-DAFSK in water or as PVP K12 complex in water, with 30 μM treprostinil, treprostinil alone = control, 30 min, room temperature
# Procedure: as §1, §2, §3, §4
# [5] = Amount going into solution in 6 mL H2O after the preparation procedure (0.45 μm filtration, HPLC); format: physicochemical; details: control sample without PVP12, heating method, 20 mg 7-DAFSK
# Procedure: For the complexation of 7-deacetyl-forskolin with PVP K12 (“Kollidon” 12 PF, Ph. Eur., USP, JP; BASF, average molar mass: about 2.5 kD), 20 mg of 7-DAFSK and 20 mg of PVP K12 were triturated in a porcelain crucible and 300 μL of ethanol was added and stirred. After 10 min, 100 μL of H2O was added, stirred, and allowed to stand again for 10 min. The solution was then heated to 140° C. in a drying oven within 40 min and left in it for a total of 45 min. After cooling, 3 mL of H2O was added and stirring was performed for 20-30 min. Then, the suspension was taken up with a syringe and filtered through 0.45 μm filter (hydrophilic). The crucible was rewashed with 3 mL H2O and the wash solution was also filtered through the filter. The content of 7-DAFSK dissolved in the 6 mL H2O was determined by HPLC. For the determination, the 7-DAFSK-PVP complex solution was diluted 1:10 with running medium. A mass fraction of 7-DAFSK in the total complex of 35 wt % was determined.
# To optimize the content of 7-DAFSK in the total complex, the weight ratios of 7-DAFSK and PVP K12 used were varied (FIG. 3). […]
# 20 mg FSK and 40 mg PVP 25 were triturated in a porcelain crucible and 300 μL ethanol (alternatively propanol) was added and stirred. […] The content of FSK dissolved in the 6 mL H2O was determined by HPLC. A mass fraction of FSK in the total complex of <0.01 wt % was determined.
# [6] = literature/background value; cited from earlier work
water solubility [1] [mg/mL],proportion of the 7-DAFSK used brought into solution [5],"solubility ([1]; 40 °C, thermodynamic from solid) [mg/mL]",SMILES,activation of adenylyl cyclase ([3H]cAMP formation) [2],activation of adenylyl cyclase ([3H]cAMP formation) [3],activation of adenylyl cyclase ([3H]cAMP formation) [4],solubility in water [6]
1,less than a quarter,,"C=C[C@@]1(C)CC(=O)[C@]2(O)[C@@]3(C)[C@@H](O)CCC(C)(C)[C@@H]3[C@H](O)[C@H](O)[C@@]2(C)O1 [7-DAFSK, 7-deacetyl-forskolin]",enhanced activity,enhanced activity,enhanced activity,up to 1 mg/mL
,,0.01,"C=C[C@@]1(C)CC(=O)[C@]2(O)[C@@]3(C)[C@@H](O)CCC(C)(C)[C@@H]3[C@H](O)[C@H](OC(C)=O)[C@@]2(C)O1 [FSK, forskolin]",,,,0.01 mg/mL
,,,"CCCCC[C@H](O)CC[C@@H]1[C@H]2Cc3cccc(OCC(=O)O)c3C[C@H]2C[C@H]1O [Treprostinil, treprostinil]",no activation of AC,no activation of AC,no activation of AC,
